Laboratory results as given in PubChem BioAssay (NCI).
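1) Cells in 96-well plates. 2) Compound, 48 h, 5 concentrations. 3) Linear interpolation between surrounding doses. 4) Unreached endpoint = highest concentration. Abbreviation: GI50, concentration required for 50% inhibition of growth. TGI marks complete inhibition of growth.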

How the values were obtained:
Assay in all cases: growth of human tumour cells (NCI), 48 h
786-0 renal = test system: 786-0 renal
A498 renal = test system: A498 renal
A549 NSCLC = test system: A549 NSCLC
ACHN renal = test system: ACHN renal
BT-549 breast = test system: BT-549 breast
CAKI-1 renal = test system: CAKI-1 renal
COLO 205 colon = test system: COLO 205 colon
DU-145 prostate = test system: DU-145 prostate
EKVX NSCLC = test system: EKVX NSCLC
HCC-2998 colon = test system: HCC-2998 colon
HCT-116 colon = test system: HCT-116 colon
HCT-15 colon = test system: HCT-15 colon
HL-60(TB) leukemia = test system: HL-60(TB) leukemia
HOP-62 NSCLC = test system: HOP-62 NSCLC
HS 578T breast = test system: HS 578T breast
HT29 colon = test system: HT29 colon
IGROV1 ovarian = test system: IGROV1 ovarian
K-562 leukemia = test system: K-562 leukemia
KM12 colon = test system: KM12 colon
LOX IMVI melanoma = test system: LOX IMVI melanoma
M14 melanoma = test system: M14 melanoma
MALME-3M melanoma = test system: MALME-3M melanoma
MCF7 breast = test system: MCF7 breast
MDA-MB-231 breast = test system: MDA-MB-231 breast
MDA-MB-435 = test system: MDA-MB-435
MOLT-4 leukemia = test system: MOLT-4 leukemia
NCI-H226 lung = test system: NCI-H226 lung
NCI-H23 lung = test system: NCI-H23 lung
NCI-H460 lung = test system: NCI-H460 lung
NCI-H522 lung = test system: NCI-H522 lung
NCI/ADR-RES ovarian = test system: NCI/ADR-RES ovarian
OVCAR-3 ovarian = test system: OVCAR-3 ovarian
OVCAR-4 ovarian = test system: OVCAR-4 ovarian
OVCAR-5 ovarian = test system: OVCAR-5 ovarian
OVCAR-8 ovarian = test system: OVCAR-8 ovarian
RXF 393 renal = test system: RXF 393 renal
SF-268 CNS = test system: SF-268 CNS
SF-295 CNS = test system: SF-295 CNS
SF-539 CNS = test system: SF-539 CNS
SK-MEL-2 melanoma = test system: SK-MEL-2 melanoma
SK-MEL-28 melanoma = test system: SK-MEL-28 melanoma
SK-MEL-5 melanoma = test system: SK-MEL-5 melanoma
SK-OV-3 ovarian = test system: SK-OV-3 ovarian
SN12C renal = test system: SN12C renal
SNB-19 CNS = test system: SNB-19 CNS
SNB-75 CNS = test system: SNB-75 CNS
SR leukemia = test system: SR leukemia
SW-620 colon = test system: SW-620 colon
T-47D breast = test system: T-47D breast
TK-10 renal = test system: TK-10 renal
U251 CNS = test system: U251 CNS
UACC-257 melanoma = test system: UACC-257 melanoma
UACC-62 melanoma = test system: UACC-62 melanoma
UO-31 renal = test system: UO-31 renal

`CC#CC#Cc1cccc(=O)o1` was tested, and the GI50 (786-0 renal) was 13.6 µM, the TGI (786-0 renal) was 28.9 µM and the GI50 (A498 renal) was 16.5 µM. The TGI (A498 renal) was 30 µM, the GI50 (A549 NSCLC) was 14.6 µM and the TGI (A549 NSCLC) was 31.5 µM. For the same compound, the GI50 (ACHN renal) was 8.15 µM, the TGI (ACHN renal) was 20.6 µM and the GI50 (BT-549 breast) was 2.37 µM. It also gave a TGI (BT-549 breast) of 10.1 µM, a GI50 (CAKI-1 renal) of 2.1 µM and a TGI (CAKI-1 renal) of 4.78 µM. For the same compound, the GI50 (COLO 205 colon) was 3.85 µM, the TGI (COLO 205 colon) was 14.4 µM and the GI50 (DU-145 prostate) was 15.7 µM. It also gave a TGI (DU-145 prostate) of 29.2 µM, a GI50 (EKVX NSCLC) of 3.14 µM and a TGI (EKVX NSCLC) of 16.2 µM. For the same compound, the GI50 (HCC-2998 colon) was 16 µM, the TGI (HCC-2998 colon) was 29.5 µM and the GI50 (HCT-116 colon) was 2.1 µM. It also gave a TGI (HCT-116 colon) of 5.79 µM, a GI50 (HCT-15 colon) of 8.08 µM and a TGI (HCT-15 colon) of 30.2 µM. It also gave a GI50 (HL-60(TB) leukemia) of 2.91 µM, a TGI (HL-60(TB) leukemia) of 18.1 µM and a GI50 (HOP-62 NSCLC) of 13.8 µM. For the same compound, the TGI (HOP-62 NSCLC) was 27 µM, the GI50 (HS 578T breast) was 10.2 µM and the TGI (HS 578T breast) was 81.4 µM. It also gave a GI50 (HT29 colon) of 4.17 µM, a TGI (HT29 colon) of 14.6 µM and a GI50 (IGROV1 ovarian) of 4.31 µM. The TGI (IGROV1 ovarian) was 19.8 µM, the GI50 (K-562 leukemia) was 0.0136 µM and the TGI (K-562 leukemia) was > 100 µM. It also gave a GI50 (KM12 colon) of 4.87 µM, a TGI (KM12 colon) of 17 µM and a GI50 (LOX IMVI melanoma) of 10.7 µM. The TGI (LOX IMVI melanoma) was 24.1 µM, the GI50 (M14 melanoma) was 9.52 µM and the TGI (M14 melanoma) was 24.3 µM. For the same compound, the GI50 (MALME-3M melanoma) was 2.8 µM, the TGI (MALME-3M melanoma) was 14.1 µM and the GI50 (MCF7 breast) was 3.4 µM. The TGI (MCF7 breast) was 18.4 µM, the GI50 (MDA-MB-231 breast) was 10.8 µM and the TGI (MDA-MB-231 breast) was 24.7 µM. It also gave a GI50 (MDA-MB-435) of 3.82 µM, a TGI (MDA-MB-435) of 22.7 µM and a GI50 (MOLT-4 leukemia) of 1.14 µM. The TGI (MOLT-4 leukemia) was > 100 µM, the GI50 (NCI-H226 lung) was 21 µM and the TGI (NCI-H226 lung) was 96.1 µM. It also gave a GI50 (NCI-H23 lung) of 5.97 µM, a TGI (NCI-H23 lung) of 21.8 µM and a GI50 (NCI-H460 lung) of 13.5 µM. It also gave a TGI (NCI-H460 lung) of 29 µM, a GI50 (NCI-H522 lung) of 3.67 µM and a TGI (NCI-H522 lung) of 16.3 µM. For the same compound, the GI50 (NCI/ADR-RES ovarian) was 18.2 µM, the TGI (NCI/ADR-RES ovarian) was > 100 µM and the GI50 (OVCAR-3 ovarian) was 3.34 µM. The TGI (OVCAR-3 ovarian) was 10.2 µM, the GI50 (OVCAR-4 ovarian) was 13 µM and the TGI (OVCAR-4 ovarian) was 25.6 µM. It also gave a GI50 (OVCAR-5 ovarian) of 24.2 µM, a TGI (OVCAR-5 ovarian) of 40 µM and a GI50 (OVCAR-8 ovarian) of 4.89 µM. The TGI (OVCAR-8 ovarian) was > 100 µM, the GI50 (RXF 393 renal) was 2.48 µM and the TGI (RXF 393 renal) was 6.63 µM. The GI50 (SF-268 CNS) was 4.29 µM, the TGI (SF-268 CNS) was 18.1 µM and the GI50 (SF-295 CNS) was 12.8 µM. It also gave a TGI (SF-295 CNS) of 26.3 µM, a GI50 (SF-539 CNS) of 5.63 µM and a TGI (SF-539 CNS) of 26.6 µM. For the same compound, the GI50 (SK-MEL-2 melanoma) was 3.73 µM, the TGI (SK-MEL-2 melanoma) was 34.3 µM and the GI50 (SK-MEL-28 melanoma) was 4.25 µM. For the same compound, the TGI (SK-MEL-28 melanoma) was 16.7 µM, the GI50 (SK-MEL-5 melanoma) was 11.3 µM and the TGI (SK-MEL-5 melanoma) was 26.7 µM. It also gave a GI50 (SK-OV-3 ovarian) of 20.5 µM, a TGI (SK-OV-3 ovarian) of 56.4 µM and a GI50 (SN12C renal) of 26.8 µM. The TGI (SN12C renal) was > 100 µM, the GI50 (SNB-19 CNS) was 16.9 µM and the TGI (SNB-19 CNS) was 30.5 µM. It also gave a GI50 (SNB-75 CNS) of 4.75 µM, a TGI (SNB-75 CNS) of 21 µM and a GI50 (SR leukemia) of 1.38 µM. For the same compound, the TGI (SR leukemia) was 7.2 µM, the GI50 (SW-620 colon) was 10 µM and the TGI (SW-620 colon) was 24.9 µM. It also gave a GI50 (T-47D breast) of 4.35 µM, a TGI (T-47D breast) of 18.7 µM and a GI50 (TK-10 renal) of 5.08 µM. It also gave a TGI (TK-10 renal) of 18.3 µM, a GI50 (U251 CNS) of 11.2 µM and a TGI (U251 CNS) of 24.9 µM. The GI50 (UACC-257 melanoma) was 8.58 µM, the TGI (UACC-257 melanoma) was 23.3 µM and the GI50 (UACC-62 melanoma) was 2.98 µM. For the same compound, the TGI (UACC-62 melanoma) was 14.6 µM, the GI50 (UO-31 renal) was 10.2 µM and the TGI (UO-31 renal) was 22.6 µM.
